From article PMC6682008 (ACS Omega, 2019) come the findings set out here.

The IC50 is the concentration that inhibits the measured activity by half.

hSPR (human sepiapterin reductase), sequence (P35270 whole entry): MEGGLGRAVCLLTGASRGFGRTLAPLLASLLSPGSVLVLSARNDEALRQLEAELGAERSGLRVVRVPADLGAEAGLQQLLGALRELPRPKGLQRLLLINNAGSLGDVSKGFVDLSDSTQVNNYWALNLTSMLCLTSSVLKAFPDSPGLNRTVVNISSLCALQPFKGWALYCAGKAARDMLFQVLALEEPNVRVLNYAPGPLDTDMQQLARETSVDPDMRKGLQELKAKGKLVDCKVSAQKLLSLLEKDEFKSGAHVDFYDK

The assay addresses hSPR (human sepiapterin reductase) (Homo sapiens, UniProt P35270). Put plainly: colorimetric sepiapterin reduction, absorbance decrease at […] nm. The class given is biochemical.
`CC(=O)NCCc1c[nH]c2ccc(O)cc12` [N-acetylserotonin, reference compound] returned an IC50 of 11.6 µM.

For the compound `C[C@H](Cc1ccc(O)c(O)c1)[C@@H](C)Cc1ccc(O)c(O)c1` [nordihydroguaiaretic acid], 8.26 µM corresponded to half-maximal inhibition (IC50).

The compound `COc1ccc(/C=C/C(=O)Nc2ccccc2C(=O)O)cc1OC` [tranilast, N-3′,4′-dimethoxycinnamoyl-anthranilic acid] had an IC50 of 5.89 µM.
